EC50 data for 23 compounds are collected here from ChEMBL document CHEMBL1139636, “QSAR analysis of thiazole benzenesulfonamide substituted 3-pyridylethanolamines as beta3-adrenergic receptor agonist” (Bioorg Med Chem Lett, 2005).

The test concerns the target Beta-3 adrenergic receptor (Homo sapiens, UniProt P13945). The test can be described thus: Effective concentration to stimulate cAMP production in chinese hamster ovary cells expressing cloned human beta-3-adrenergic receptor. The class given is functional, cell-based, Cricetulus griseus.

Chain of Beta-3 adrenergic receptor (P13945 whole entry): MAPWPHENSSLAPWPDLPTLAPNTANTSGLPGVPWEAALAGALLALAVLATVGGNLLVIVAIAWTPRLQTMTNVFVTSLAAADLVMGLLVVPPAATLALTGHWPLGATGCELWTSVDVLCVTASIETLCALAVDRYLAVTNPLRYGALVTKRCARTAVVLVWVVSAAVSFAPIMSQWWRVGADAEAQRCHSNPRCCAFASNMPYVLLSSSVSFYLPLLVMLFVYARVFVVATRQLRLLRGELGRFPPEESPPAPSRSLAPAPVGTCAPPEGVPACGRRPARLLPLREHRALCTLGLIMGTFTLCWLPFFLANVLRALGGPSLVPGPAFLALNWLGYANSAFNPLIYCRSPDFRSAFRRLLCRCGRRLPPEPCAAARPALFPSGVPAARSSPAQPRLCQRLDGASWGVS

`O=S(=O)(Nc1ccc(CCNC[C@H](O)c2ccccc2)cc1)c1ccc(Cc2nc(-c3ccc4ncccc4c3)cs2)cc1` yielded an EC50 of 2.7 nM. That is a single-digit nanomolar value.

Take `CCCCCCCCc1csc(Cc2ccc(S(=O)(=O)Nc3ccc(CCNC[C@H](O)c4ccccc4)cc3)cc2)n1`: the concentration for a half-maximal effect (EC50) was determined as 10 nM.

As to `O=S(=O)(Nc1ccc(CCNC[C@H](O)c2ccccc2)cc1)c1ccc(Cc2nc(CCc3ccccc3)cs2)cc1`, the EC50 was 33 nM. This EC50 is about 3.3-fold higher than that of the compound before.

`O=S(=O)(Nc1ccc(CCNC[C@H](O)c2ccccc2)cc1)c1ccc(Cc2nc(CCC3CCCC3)cs2)cc1` displayed a 50% effective concentration (EC50) of 26 nM.

On to `O=S(=O)(Nc1ccc(CCNC[C@H](O)c2ccccc2)cc1)c1ccc(Cc2nc(-c3ccc(F)cc3)cs2)cc1`, for which the EC50 stood at 9.5 nM. Against the preceding compound, the EC50 is about 2.7-fold lower.

Take `O=S(=O)(Nc1ccc(CCNC[C@H](O)c2ccccc2)cc1)c1ccc(Cc2nc(-c3cc4ccccc4o3)cs2)cc1`: the response was half-maximal at 5 nM (EC50).

In the case of `O=S(=O)(Nc1ccc(CCNC[C@H](O)c2ccccc2)cc1)c1ccc(Cc2nc(-c3ccc(F)c(F)c3)cs2)cc1`, the midpoint of the response, the EC50, lay at 7.1 nM.

With `O=S(=O)(Nc1ccc(CCNC[C@H](O)c2ccccc2)cc1)c1ccc(Cc2nc(-c3c[nH]c4ccccc34)cs2)cc1`, the EC50 was determined as 9.1 nM.

With `O=S(=O)(Nc1ccc(CCNC[C@H](O)c2ccccc2)cc1)c1ccc(Cc2nc(Cc3ccc(F)cc3)cs2)cc1`, the response was half-maximal at 6.2 nM (EC50).

`CC/C=C/CC/C=C/c1csc(Cc2ccc(S(=O)(=O)Nc3ccc(CCNC[C@H](O)c4ccccc4)cc3)cc2)n1` returned a concentration giving a half-maximal response (EC50) of 51 nM.

`O=S(=O)(Nc1ccc(CCNC[C@H](O)c2ccccc2)cc1)c1ccc(Cc2nc(-c3cc4ccccc4s3)cs2)cc1` displayed a concentration giving a half-maximal response (EC50) of 5.8 nM. Compared with the last compound, the EC50 is about 8.8-fold lower.

Compound `O=S(=O)(Nc1ccc(CCNC[C@H](O)c2ccccc2)cc1)c1ccc(Cc2nc(-c3cnc4ccccc4c3)cs2)cc1` displayed an EC50 of 7.3 nM.

In the case of `O=S(=O)(Nc1ccc(CCNC[C@H](O)c2ccccc2)cc1)c1ccc(CCc2nc(Cc3ccc4ccccc4c3)cs2)cc1`, the 50% effective concentration (EC50) came to 12 nM.

In turn, `O=S(=O)(Nc1ccc(CCNC[C@H](O)c2ccccc2)cc1)c1ccc(Cc2nc(-c3cccnc3)cs2)cc1` registered a 50% effective concentration (EC50) of 40 nM.

Regarding `CCCCCCc1ccc(-c2csc(Cc3ccc(S(=O)(=O)Nc4ccc(CCNC[C@H](O)c5ccccc5)cc4)cc3)n2)cc1`, the EC50 was determined as 1.2 nM.

`CC(C)(C)c1ccc(-c2csc(Cc3ccc(S(=O)(=O)Nc4ccc(CCNC[C@H](O)c5ccccc5)cc4)cc3)n2)cc1` registered an EC50 of 2.4 nM.

`O=S(=O)(Nc1ccc(CCNC[C@H](O)c2ccccc2)cc1)c1ccc(Cc2nc(-c3ccc(O)cc3)cs2)cc1` returned an EC50 of 45 nM.

With `CC(=O)NCCCCCc1csc(Cc2ccc(S(=O)(=O)Nc3ccc(CCNC[C@H](O)c4ccccc4)cc3)cc2)n1`, the half-maximal effective concentration (EC50) was determined as 50 nM.

Turning to `O=S(=O)(Nc1ccc(CCNC[C@H](O)c2ccccc2)cc1)c1ccc(Cc2nc(-c3ccccn3)cs2)cc1`, a half-maximal response (EC50) required 22 nM.

In turn, `O=S(=O)(Nc1ccc(CCNC[C@H](O)c2ccccc2)cc1)c1ccc(Cc2nc(-c3ccc4ccccc4c3)cs2)cc1` returned an EC50 of 2 nM. Compared with the last compound, the EC50 is about 11-fold lower.

`CC(=O)Nc1ccc(-c2csc(Cc3ccc(S(=O)(=O)Nc4ccc(CCNC[C@H](O)c5ccccc5)cc4)cc3)n2)cc1` registered a half-maximal effective concentration (EC50) of 45 nM.

With `CCCCCCCCc1csc(CCc2ccc(S(=O)(=O)Nc3ccc(CCNC[C@H](O)c4ccccc4)cc3)cc2)n1`, it took 9.8 nM to reach a half-maximal effect (EC50). Against the preceding compound, the EC50 is about 4.6-fold lower.

For `O=S(=O)(Nc1ccc(CCNC[C@H](O)c2ccccc2)cc1)c1ccc(Cc2nc(Cc3ccc4ccccc4c3)cs2)cc1`, a half-maximal effect (EC50) was put at 33 nM.

As a reminder, the EC50 is the concentration giving half of the maximal effect. High values mean a less potent agent, low ones a more potent agent.
